Measured values as given in patent US11931356B1, “Compositions and methods for treating human papilloma virus infections” (priority 2022, dated 2024).

Tests used:
[1] = molecular target: HPV-16 E6 protein with Cys51 (Human papillomavirus type 16, UniProt P03126); assay type: binding; details: whole protein mass spectrum
[2] = molecular target: C51S (cysteine 51 mutation to serine) HPV-16 E6 protein (Human papillomavirus type 16, UniProt P03126, C58S); experiment: whole protein mass spectra of mutant C51S HPV-16 E6 protein upon exposure to compound; assay type: binding, human papilloma virus 16; details: whole protein mass spectrum; cysteine 51 replaced by serine
Sequence of C51S (cysteine 51 mutation to serine) HPV-16 E6 protein (P03126 8-158 C58S): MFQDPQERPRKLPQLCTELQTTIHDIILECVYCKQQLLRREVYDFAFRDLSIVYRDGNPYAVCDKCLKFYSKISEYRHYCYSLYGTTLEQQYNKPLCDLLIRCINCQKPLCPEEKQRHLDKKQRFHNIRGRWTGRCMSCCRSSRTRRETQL

Sequence of HPV-16 E6 protein with Cys51 (P03126 8-158): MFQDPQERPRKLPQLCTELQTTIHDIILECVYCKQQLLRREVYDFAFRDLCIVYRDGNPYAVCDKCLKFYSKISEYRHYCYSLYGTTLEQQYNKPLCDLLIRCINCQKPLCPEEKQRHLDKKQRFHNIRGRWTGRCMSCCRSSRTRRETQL

Compound: C=CC(=O)N1CCN(c2nc(CCc3ccc(F)c(OC)c3)nc3sc4c(c23)CCCC4)CC1 [Compound 1]
- mass shift of the HPV-16 E6 protein upon exposure to compound (covalent bonding at Cys51) [1]: mass shift
- mass shift of the C51S HPV-16 E6 protein upon exposure to compound [2]: lack of mass shift

Compound: C=CC(=O)N1CCN(c2nc(CCc3ccc(O)c(F)c3)nc3sc4c(c23)CCCC4)CC1 [Compound 2]
- mass shift of the HPV-16 E6 protein upon exposure to compound (covalent bonding at Cys51) [1]: mass shift
- mass shift of the C51S HPV-16 E6 protein upon exposure to compound [2]: lack of mass shift

Compound: C=CC(=O)N1CCN(c2nc(CCc3ccc(F)c(O)c3)nc3sc4c(c23)CCCC4)CC1 [Compound 3]
- mass shift of the HPV-16 E6 protein upon exposure to compound (covalent bonding at Cys51) [1]: mass shift
- mass shift of the C51S HPV-16 E6 protein upon exposure to compound [2]: lack of mass shift

Compound: C=CC(=O)N1CCN(c2nc(CCc3cc(F)c(OC)c(F)c3)nc3sc4c(c23)CCCC4)CC1 [Compound 4]
- mass shift of the HPV-16 E6 protein upon exposure to compound (covalent bonding at Cys51) [1]: mass shift
- mass shift of the C51S HPV-16 E6 protein upon exposure to compound [2]: lack of mass shift

Compound: C=CC(=O)N1CCN(c2nc(CCc3cnc(OC)c(F)c3)nc3sc4c(c23)CCCC4)CC1 [Compound 5]
- mass shift of the HPV-16 E6 protein upon exposure to compound (covalent bonding at Cys51) [1]: mass shift
- mass shift of the C51S HPV-16 E6 protein upon exposure to compound [2]: lack of mass shift

Compound: C=CC(=O)N1CCN(c2nc(CCc3ccc(OC)c(OC)c3)nc3sc4c(c23)CCCC4)CC1 [Compound 6]
- mass shift of the HPV-16 E6 protein upon exposure to compound (covalent bonding at Cys51) [1]: mass shift
- mass shift of the C51S HPV-16 E6 protein upon exposure to compound [2]: lack of mass shift

Compound: C=CC(=O)N1CCN(C(=O)CN2CCc3sccc3C2c2cccc3ccccc23)CC1 (stereo not shown) [Compound 7]
- mass shift of the HPV-16 E6 protein upon exposure to compound (covalent bonding at Cys51) [1]: mass shift
- mass shift of the C51S HPV-16 E6 protein upon exposure to compound [2]: lack of mass shift

Compound: C=CC(=O)N1CCN(c2nc(C3CCCC3)nc3cccc(F)c23)CC1 [Compound 8]
- mass shift of the HPV-16 E6 protein upon exposure to compound (covalent bonding at Cys51) [1]: mass shift
- mass shift of the C51S HPV-16 E6 protein upon exposure to compound [2]: lack of mass shift

Compound: C=CC(=O)N1CCN(C(=O)CN2CCc3sccc3C2c2cccc3ncccc23)CC1 (stereo not shown) [Compound 9]
- mass shift of the HPV-16 E6 protein upon exposure to compound (covalent bonding at Cys51) [1]: mass shift
- mass shift of the C51S HPV-16 E6 protein upon exposure to compound [2]: lack of mass shift

Compound: C=CC(=O)N1CCN(c2nc(CCc3ccc(OC)c(F)c3)nc3sc4c(c23)CCCC4)CC1 [Compound 10]
- mass shift of the HPV-16 E6 protein upon exposure to compound (covalent bonding at Cys51) [1]: mass shift
- mass shift of the C51S HPV-16 E6 protein upon exposure to compound [2]: lack of mass shift

Compound: C=CC(=O)N1CCN(c2nc(CCc3cccc(OC)c3)nc3ccccc23)C(C)C1 (stereo not shown) [Compound 11]
- mass shift of the HPV-16 E6 protein upon exposure to compound (covalent bonding at Cys51) [1]: mass shift
- mass shift of the C51S HPV-16 E6 protein upon exposure to compound [2]: lack of mass shift
